This is an account of results in patent US8350036B2, “Bisnaphthalimidopropyl derivative compounds with anti-parasite and anti-cancer activity” (Universidade Do Porto, priority 2006, dated 2013).

One may read the IC50 as the concentration at which inhibition is half-maximal.

For one data set, the system named is CaCo-2 colon carcinoma. As to the kind of experiment: Cytotoxicity against CaCo-2 cells by MTT assay. The data set is classed as cell-based. The following applies: Homo sapiens, 0.01-40 μM. As to the method: Cytotoxity was evaluated for CaCo-2 colon carcinoma using the MTT assay with protocols appropriate for the individual test system.^11,13 CaCo-2 cells were maintained in Earle's Minimum Essential Medium (Sigma), supplemented with 10% fetal calf serum (Biosera), 2 mM L-glutamine (Sigma), 1% non-essential amino acids (Sigma), 100 IU mL^−1 penicillin and 100 μg mL^−1 streptomycin (Sigma). Exponentially growing cells were plated at 2×10^4 cells cm^−2 into 96-well plates and incubated for 24 h before the addition of drugs. Stock solutions of compounds were initially dissolved in 20% DMSO and further diluted with fresh complete medium. After 24 and 48 h of incubation at 37° C., the medium was removed and 200 μl of MTT reagent (1 mg/mL) in serum free medium was added to each well. The plates were incubated at 37° C. for 4 h. At the end of the incubation period, the medium was removed and pure DMSO (200 μl) was added to each well. The metabolized MTT product dissolved in DMSO was quantified by reading the absorbance at 560 nm on a micro plate reader (Dynex Technologies, USA). IC50 values are defined, as the drug concentrations required to reduce the absorbance by 50% of the control values. The IC50 values were calculated from the equation of the logarithmic line determined by fitting the best line (Microsoft Excel) to the curve formed from the data. The IC50 value was obtained from the equation for y=50 (50% value).
For orientation: Tetrazolium assays rely on reduction of a dye to a coloured formazan, in cell work by metabolically active cells.

A short description of a further data set: Solubility. The data set is classed as physicochemical. To be noted: effect of longer alkyl central chain.
In data set [1] the test system is intracellular amastigotes of L. infantum. As to the kind of experiment: Intracellular amastigotes in differentiated THP-1 cells (luciferase assay). Format: cell-based, Leishmania infantum. To be noted: for IC50: Leishmania infantum, intracellular amastigotes in THP-1 cells, 72 h of incubation, read-out: IC50(μM) Amastigote intracellular; for parasite growth inhibition, intracellular amastigote: range of concentration 0.39 to 12.50 μM. As to the method:
(§1) The axenic amastigote of Leishmania infantum (clone MHOM/MA671TMA-P263) transfected with reporter gene that encode to the luciferase enzyme (Roy et al, 2000) were grown at 37° C. with 5% CO2 in a cell-free medium called MAA (medium for axenically grown amastigote). The medium MAA/20, consisted of modified medium 199 (Hanks' balanced salts) supplemented with 0.5% soya trypto-casein, 15 mM D-glucose, 5 mM L-glutamine, 4 mM NaHCO3, 0.023 mM bovine hemin, 25 mM HEPES final pH, 6.5 and 20% inactivated fetal calf serum. The parasites were incubated with different concentrations during 3 days at 37° C. with 5% CO2. The growth of the parasites was done by measuring the luciferase activity using luciferin as a substract. The intracellular amastigotes of L. infantum were cultured in a macrophage differentiated human leukemia monocyte cell line (THP-1 cells). The THP-1 cells were differentiated during 2 days with 20 ng/ml of PMA in RPMI-1640 medium supplemented with 10% FCS, 2 mM glutamine, 100 IU of penicillin/ml and 100 μg/ml of streptomycin. The non differentiated cells were washed with prewarmed medium and the adherent cells sinfected with luciferase-expressing axenic amastigotes at a parasite/macrophage ratio of 3:1 for 4 h at 37° C. with 5% CO2. Noninternalized parasites were removed and serial dilutions of each drug were made in the RPMI medium supplemented with 10% FCS. After 3 days of drug exposure, wells containing adherent differentiated THP-1 cells were washed and luciferase activity was determined.
Cytotoxicity determined by luciferase assay. […] The results were representative of medium±SD at least 5 assays.

For data set [2], the system named is axenic amastigote of Leishmania infantum. Kind of data set: Growth of luciferase-expressing axenic amastigotes (luciferase assay). The data set is classed as cell-based. The following applies: for parasite growth inhibition, axenic amastigote: FIG. 1; for IC50: Leishmania infantum, axenic amastigotes, 72 h of incubation, 37° C. As to the method:
as §1
FIG. 1. […] The results are representative of 5 assays made independently. The promastigote and axenic amastigote were incubated with a serial range of drug concentrations 0.30 to 12.5 μM, at 27° C. and 3.125 to 100 μM at 37° C. in 5% CO2, respectively, during 3 days. The growth curves represented indicate the percentage growth related to the control for each concentration after luciferase activity determination. Each point represents a mean of 3 assays±STD.
(§2) Cytotoxicity determined by luciferase assay. The results were obtained after treatment of different parasite forms with a range of different drug concentrations 0.30 to 100 μM after 72 h of incubation. The results were representative of medium±SD at least 5 assays.

Data set [3] concerns Leishmania infantum promastigotes. As to the kind of experiment: Growth of luciferase-expressing promastigotes (luciferase assay). The data set is classed as cell-based. The following applies: for IC50: Leishmania infantum; for parasite growth inhibition, promastigote: range of concentration 0.39 to 12.50 μM, FIG. 1. As to the method:
Leishmania infantum (clone MHOM/MA671TMA-P263) promastigotes transfected with reporter gene that encode to the luciferase enzyme (Roy et al, 2000) were grown at 27° C. in RPMI medium (Gibco) supplemented with 10% of heat inactivated fetal bovine serum (FBS-Gibco), 2 mM L-glutamine (Gibco), 20 mM Hepes (Gibco), 100 U/ml penicillin (Gibco) and 100 μg/ml streptomycin (Gibco). The parasites (10^6/ml) in the logarithmic phase (2 days of culture) were incubated with a serial range of concentrations of each drug for 3 days at 27° C. and the growth of parasites was determined by using the luciferase activity using luciferin as subtract.
FIG. 1. […] The results are representative of 5 assays made independently. […] The growth curves represented indicate the percentage growth related to the control for each concentration after luciferase activity determination. Each point represents a mean of 3 assays±STD.
as §2

For data set [4] the following is noted: most solvents; previously reported (Kong et al, 2000); cited from earlier work.
The mark [5] stands for this setting: 24 h drug exposure, read-out: IC50 (μM) 24 h.
Where [6] appears, read: 48 h drug exposure, read-out: IC50 (μM) 48 h.
Where [7] appears, read: promastigote, unit inferred, read-out: IC50±SD promastigote.
The mark [8] stands for this setting: promastigotes, 72 h of incubation, 27° C., read-out: IC50(μM) Promastigotes.

Structures are written as SMILES. Like-named read-outs stand apart in the source and are kept apart here. Bounds are passed on as bounds.

As to `O=C1c2cccc3cccc(c23)C(=O)N1CCCNCCCCCCCCCCNCCCN1C(=O)c2cccc3cccc(c23)C1=O` [BNIPDadec, Bisnaphthalimidopropyldiaminodecane], the figures for the IC50 in the data set on CaCo-2 colon carcinoma (setting [5]) and with CaCo-2 colon carcinoma (setting [6]) were 0.77 µM and 0.36 µM, respectively. In addition, the aqueous solubility result in the data set “Solubility” is “helps aqueous solubility”.

For `O=C1c2cccc3cccc(c23)C(=O)N1CCCNCCCCCCCCCCCCNCCCN1C(=O)c2cccc3cccc(c23)C1=O` [BNIPDadod, Bisnaphthalimidopropyldiaminododecane], the half-maximal inhibitory concentration (IC50) in the data set on CaCo-2 colon carcinoma (setting [5]) was 4.5 µM; in the data set on CaCo-2 colon carcinoma (setting [6]), 2.7 µM.

As for `O=C1c2cccc3cccc(c23)C(=O)N1CCCNCCCCCCCNCCCN1C(=O)c2cccc3cccc(c23)C1=O` [BNIPDahep, Bisnaphthalimidopropyldiaminoheptane], the half-inhibitory concentration (IC50) in the data set with CaCo-2 colon carcinoma (setting [5]) was 3.2 µM; with CaCo-2 colon carcinoma (setting [6]), 0.94 µM.

With `O=C1c2cccc3cccc(c23)C(=O)N1CCCNCCCCCCNCCCN1C(=O)c2cccc3cccc(c23)C1=O` [BNIPDahex, Bisnaphthalimidopropyldiaminohexane], the values for the IC50 in the data set with CaCo-2 colon carcinoma (setting [5]) and in the data set on CaCo-2 colon carcinoma (setting [6]) were 0.65 µM and 2 µM, respectively.

In the case of `O=C1c2cccc3cccc(c23)C(=O)N1CCCNCCCCCCCCCNCCCN1C(=O)c2cccc3cccc(c23)C1=O` [BNIPDanon, Bisnaphthalimidopropyldiaminononane], the IC50 in the data set with CaCo-2 colon carcinoma (setting [5]) was found to be 3.6 µM; in the data set on CaCo-2 colon carcinoma (setting [6]), 0.67 µM; in data set [1], 6.03 ± 0.67 µM; in data set [2] it was 17.4 ± 0.97 µM; in data set [3] (setting [7]), 2.09 ± 0.54 µM; in data set [3] (setting [8]), 2.09 ± 0.54 µM. Also, the “parasite growth inhibition, intracellular amastigote” value in data set [1] is given as “dose dependent inhibition of parasite growth”. For the same compound, the “parasite growth inhibition, axenic amastigote” value in data set [2] is listed as “dose dependent inhibition of parasite growth”. Also, in data set [3], the “parasite growth inhibition, promastigote” value is given as “dose dependent inhibition of parasite growth”. Besides, the aqueous solubility entry in the data set “Solubility” is given as “helps aqueous solubility”.

Take `O=C1c2cccc3cccc(c23)C(=O)N1CCCNCCCCCCCCNCCCN1C(=O)c2cccc3cccc(c23)C1=O` [BNIPDaoct, Bisnaphthalimidopropyldiaminooctane]: the IC50 in the data set with CaCo-2 colon carcinoma (setting [5]) was 6.2 µM; in the data set on CaCo-2 colon carcinoma (setting [6]), 3.2 µM; in data set [1], 2.43 ± 0.19 µM; in data set [2], not below 50 µM; in data set [3] (setting [7]), not above 0.39 µM; in data set [3] (setting [8]), not above 0.39 µM. Moreover, the “parasite growth inhibition, intracellular amastigote” value in data set [1] was “dose dependent inhibition of parasite growth”. Moreover, in data set [2], the “parasite growth inhibition, axenic amastigote” value is “didn't inhibited the parasite growth up to 50 μM”. In addition, the “parasite growth inhibition, promastigote” value in data set [3] is “dose dependent inhibition of parasite growth”. Moreover, the aqueous solubility entry in the data set “Solubility” is reported as “helps aqueous solubility”.

For the compound `O=C1c2cccc3cccc(c23)C(=O)N1CCCNCCCCCNCCCN1C(=O)c2cccc3cccc(c23)C1=O` [BNIPDapen, Bisnaphthalimidopropyldiaminopentane], the half-maximal inhibitory concentration (IC50) was found to be 11 µM with CaCo-2 colon carcinoma (setting [5]) and 6.5 µM in the data set on CaCo-2 colon carcinoma (setting [6]).

For the compound `O=C1c2cccc3cccc(c23)C(=O)N1CCCNCCNCCNCCCN1C(=O)c2cccc3cccc(c23)C1=O` [BNIPDeta, Bisnaphthalimidopropyldietiltriamine], the concentration for half-maximal inhibition (IC50) with CaCo-2 colon carcinoma (setting [5]) is 21.7 µM; in the data set with CaCo-2 colon carcinoma (setting [6]) it was 22.3 µM; in data set [1] it was 9.52 ± 0.56 µM; in data set [2], 6.97 ± 0.2 µM; in data set [3] (setting [7]), 0.96 ± 0.17 µM; in data set [3] (setting [8]), 0.96 ± 0.17 µM. For the same compound, in data set [1], the “parasite growth inhibition, intracellular amastigote” value was “dose dependent inhibition of parasite growth”. Further, the “parasite growth inhibition, axenic amastigote” value in data set [2] is reported as “dose dependent inhibition of parasite growth”. The “parasite growth inhibition, promastigote” value in data set [3] is listed as “dose dependent inhibition of parasite growth”.

Regarding `O=C1c2cccc3cccc(c23)C(=O)N1CCCNCCCNCCCNCCCN1C(=O)c2cccc3cccc(c23)C1=O` [BNIPDpta, Bisnaphthalimidopropyldipropiltriamine], the half-inhibitory concentration (IC50) was 5 µM in the data set with CaCo-2 colon carcinoma (setting [5]); 3.2 µM in the data set on CaCo-2 colon carcinoma (setting [6]); 4.22 ± 1.07 µM in data set [1]; 5.24 ± 0.93 µM in data set [2]; 1.09 ± 0.12 µM in data set [3] (setting [7]); 1.09 ± 0.12 µM in data set [3] (setting [8]). In addition, the “parasite growth inhibition, intracellular amastigote” value in data set [1] is “dose dependent inhibition of parasite growth”. Besides, the “parasite growth inhibition, axenic amastigote” value in data set [2] is “dose dependent inhibition of parasite growth”. For the same compound, the “parasite growth inhibition, promastigote” value in data set [3] is reported as “dose dependent inhibition of parasite growth”.

On to `O=C1c2cccc3cccc(c23)C(=O)N1CCCNCCCCNCCCN1C(=O)c2cccc3cccc(c23)C1=O` [BNIPPut, Bisnaphthalimidopropylputrescine], for which the half-inhibitory concentration (IC50) was 4.53 ± 0.54 µM in data set [1], 5.49 ± 0.67 µM in data set [2], 0.4 ± 0.15 µM in data set [3] (setting [7]) and 0.4 ± 0.15 µM in data set [3] (setting [8]). Further, the “parasite growth inhibition, intracellular amastigote” value in data set [1] is on record as “dose dependent inhibition of parasite growth”. For the same compound, in data set [2], the “parasite growth inhibition, axenic amastigote” value is recorded as “dose dependent inhibition of parasite growth”. Further, the “parasite growth inhibition, promastigote” value in data set [3] was “dose dependent inhibition of parasite growth”. Besides, the solubility result in data set [4] is listed as “not soluble in most solvents”.

As to `O=C1c2cccc3cccc(c23)C(=O)N1CCCNCCCCNCCCNCCCN1C(=O)c2cccc3cccc(c23)C1=O` [BNIPSpd, Bisnaphthalimidopropylespermidine], the IC50 with CaCo-2 colon carcinoma (setting [5]) is 0.15 µM; with CaCo-2 colon carcinoma (setting [6]), 0.47 µM; in data set [1] it was 8.92 ± 1.07 µM; in data set [2] it was 9.61 ± 1.84 µM; in data set [3] (setting [7]), 1.86 ± 0.82 µM; in data set [3] (setting [8]), 1.86 ± 0.82 µM. Further, in data set [1], the “parasite growth inhibition, intracellular amastigote” value is reported as “dose dependent inhibition of parasite growth”. In data set [2], the “parasite growth inhibition, axenic amastigote” value was “dose dependent inhibition of parasite growth”. Further, in data set [3], the “parasite growth inhibition, promastigote” value is “dose dependent inhibition of parasite growth”.
